Test results as given in paper PMC10066365, “Nemacol is a small molecule inhibitor of C. elegans vesicular acetylcholine transporter with anthelmintic potential” (Nature Communications, 2023).
“And” between values parts separate entries of the source, which are not always exact repeats. Identical values can stand only once.

Columns and labels:
C. elegans = C. elegans motor phenotype scoring on solid media (Punc/jerky-unc, coiled, paralyzed), wild-type young adults; format: in vivo, Caenorhabditis elegans; details: for any phene (mean % fraction of young adults exhibiting any phenotype: coiled, jerky-Unc or paralyzed) / atypical locomotion (number of animals) / coiled (number of animals) / no phene (number of animals) / paralyzed (number of animals) / any phene: mean % fraction of young adults exhibiting any phenotype (coiled, jerky-Unc or paralyzed): one hour; for any phene (mean % fraction of young adults exhibiting any phenotype: coiled, jerky-Unc or paralyzed) / any phene: mean % fraction of young adults exhibiting any phenotype (coiled, jerky-Unc or paralyzed): mean of three biological replicates; for EC50: Caenorhabditis elegans, any motor phenotype after 1 h on solid media, ± 95% CI, read-out: C. elegans - motor disruption EC50; for atypical locomotion (number of animals) / coiled (number of animals) / no phene (number of animals) / paralyzed (number of animals): young adults, 20 animals per trial, single technical replicate
[1] = system: Dirofilaria immitis microfilariae; test: Dirofilaria immitis microfilariae immobility assay (DiroImager, 72 h); details: Dirofilaria immitis microfilariae
Summary of the method: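 Motility read after 72 h drug exposure with an image-based high-throughput plate imager, 1% DMSO medium serving as negative control. Missouri-isolate microfilariae, roughly 250 per well, freshly purified and cultured in supplemented RPMI 1640.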

[2] = system: Dirofilaria immitis L3/L4; test: Dirofilaria immitis L3/L4 motility assay (DiroImager, 72 h); details: Dirofilaria immitis L4
Pristionchus pacificus = Pristionchus pacificus motor disruption dose-response on solid media, 1 h; details: for mean % any phene (coiled, jerky-Unc or paralyzed): Pristionchus pacificus young adults; for mean % any phene (coiled, jerky-Unc or paralyzed) / mean % any phene: mean of three biological replicates; for EC50: Pristionchus pacificus, 1 h, read-out: P. pacificus motor disruption EC50; for rep 1 atypical locomotion / rep 1 coiled / rep 1 no phene / rep 1 paralyzed / rep 2 atypical locomotion / rep 2 coiled / rep 2 no phene / rep 2 paralyzed / rep 3 atypical locomotion / rep 3 coiled / rep 3 no phene / rep 3 paralyzed: count of 20 animals per trial, one hour; for mean % any phene: any phenotype (coiled, jerky-Unc or paralyzed) at one hour
[3] = 3.75uM, third c14 line of each analog
[4] = 15uM, second c14 line of each analog
[5] = 60uM, first c14 line of each analog
[6] = conc 3.75, observed at one hour

## CC1CCC(N2CCN(c3ccc(Cl)cc3)CC2)C1 (centres unmarked) [Nemacol-44]
C. elegans; [3]
  any phene (mean % fraction of young adults exhibiting any phenotype: coiled, jerky-Unc or paralyzed): 80%
C. elegans; [4]
  any phene (mean % fraction of young adults exhibiting any phenotype: coiled, jerky-Unc or paralyzed): 100%
C. elegans; [5]
  any phene (mean % fraction of young adults exhibiting any phenotype: coiled, jerky-Unc or paralyzed): 100%
C. elegans
  EC50: 3.4 µM
[1]; 0.016 µM
  % effect (motility), DIROIM MF: 0%
[1]; 0.08 µM
  % effect (motility), DIROIM MF: 0%
[1]; 0.4 µM
  % effect (motility), DIROIM MF: 0%
[1]; 2 µM
  % effect (motility), DIROIM MF: 0%
[1]; 10 µM
  % effect (motility), DIROIM MF: 0%
[2]; 2 µM
  % effect (motility), DIROIM L4: 0%
[2]; 10 µM
  % effect (motility), DIROIM L4: 0%
[2]; 50 µM
  % effect (motility), DIROIM L4: 10%
Pristionchus pacificus; [6]
  mean % any phene (coiled, jerky-Unc or paralyzed): 63.3333%
Pristionchus pacificus; conc 15, observed at one hour
  mean % any phene (coiled, jerky-Unc or paralyzed): 90.7456%
Pristionchus pacificus; conc 60, observed at one hour
  mean % any phene (coiled, jerky-Unc or paralyzed): 100%
Pristionchus pacificus
  EC50: 2.5 ± 1 µM
Pristionchus pacificus; conc 3.75
  rep 1 atypical locomotion: 3
  rep 1 coiled: 0
  rep 1 no phene: 17
  rep 1 paralyzed: 0
  rep 2 atypical locomotion: 10
  rep 2 coiled: 8
  rep 2 no phene: 2
  rep 2 paralyzed: 0
Pristionchus pacificus; conc 15
  rep 1 atypical locomotion: 13
  rep 1 coiled: 7
  rep 1 no phene: 0
  rep 1 paralyzed: 0
  rep 2 atypical locomotion: 0
  rep 2 coiled: 14
  rep 2 no phene: 0
  rep 2 paralyzed: 6
Pristionchus pacificus; conc 60
  rep 1 atypical locomotion: 2
  rep 1 coiled: 5
  rep 1 no phene: 0
  rep 1 paralyzed: 13
  rep 2 atypical locomotion: 1
  rep 2 coiled: 7
  rep 2 no phene: 0
  rep 2 paralyzed: 12

## FC(F)(F)c1cccc(N2CCN(CC3CC4C=CC3C4)CC2)c1 (centres unmarked) [Nemacol-47]
C. elegans; [3]
  any phene (mean % fraction of young adults exhibiting any phenotype: coiled, jerky-Unc or paralyzed): 34.1667%
C. elegans; [4]
  any phene (mean % fraction of young adults exhibiting any phenotype: coiled, jerky-Unc or paralyzed): 81.6667%
C. elegans; [5]
  any phene (mean % fraction of young adults exhibiting any phenotype: coiled, jerky-Unc or paralyzed): 100%
C. elegans
  EC50: 5.7 ± 1.7 µM
[1]; 0.016 µM
  % effect (motility), DIROIM MF: 0%
[1]; 0.08 µM
  % effect (motility), DIROIM MF: 0%
[1]; 0.4 µM
  % effect (motility), DIROIM MF: 0%
[1]; 2 µM
  % effect (motility), DIROIM MF: 0%
[1]; 10 µM
  % effect (motility), DIROIM MF: 0%
[2]; 10 µM
  % effect (motility), DIROIM L4: 0%
[2]; 50 µM
  % effect (motility), DIROIM L4: 5%
Pristionchus pacificus; [6]
  mean % any phene (coiled, jerky-Unc or paralyzed): 79.1667%
Pristionchus pacificus; conc 15, observed at one hour
  mean % any phene (coiled, jerky-Unc or paralyzed): 100%
Pristionchus pacificus; conc 60, observed at one hour
  mean % any phene (coiled, jerky-Unc or paralyzed): 100%
Pristionchus pacificus
  EC50: 2.9 µM

## FC(F)(F)c1cccc(N2CCN(CC3CCCCC3)CC2)c1 [Nemacol-49]
C. elegans; 3.75uM
  atypical locomotion (number of animals): 3 and 2 and 1
  coiled (number of animals): 0
  no phene (number of animals): 17 and 18 and 19
  paralyzed (number of animals): 0
  any phene: mean % fraction of young adults exhibiting any phenotype (coiled, jerky-Unc or paralyzed): 9.167%
C. elegans; 15uM
  atypical locomotion (number of animals): 12 and 13 and 9
  coiled (number of animals): 3 and 1 and 2 and 0
  no phene (number of animals): 5 and 7 and 10 and 8
  paralyzed (number of animals): 0
  any phene: mean % fraction of young adults exhibiting any phenotype (coiled, jerky-Unc or paralyzed): 65%
C. elegans; 60uM
  atypical locomotion (number of animals): 13 and 16 and 10 and 14 and 15
  coiled (number of animals): 7 and 4 and 10 and 6 and 1 and 3
  no phene (number of animals): 0 and 5 and 2
  paralyzed (number of animals): 0
  any phene: mean % fraction of young adults exhibiting any phenotype (coiled, jerky-Unc or paralyzed): 94.1667%
C. elegans
  EC50: 11.2 ± 1.6 µM
[1]; 0.016 µM
  % effect (motility), DIROIM MF: 0%
[1]; 0.08 µM
  % effect (motility), DIROIM MF: 0%
[1]; 0.4 µM
  % effect (motility), DIROIM MF: 0%
[1]; 2 µM
  % effect (motility), DIROIM MF: 0%
[1]; 10 µM
  % effect (motility), DIROIM MF: 0%
[2]; 10 µM
  % effect (motility), DIROIM L4: 0%
[2]; 50 µM
  % effect (motility), DIROIM L4: 10%
Pristionchus pacificus
  EC50: > 60 µM
Pristionchus pacificus; conc 3.75
  mean % any phene: 0%
  rep 1 atypical locomotion: 0
  rep 1 coiled: 0
  rep 1 no phene: 20
  rep 1 paralyzed: 0
  rep 2 atypical locomotion: 0
  rep 2 coiled: 0
  rep 2 no phene: 20
  rep 2 paralyzed: 0
  rep 3 atypical locomotion: 0
  rep 3 coiled: 0
  rep 3 no phene: 20
  rep 3 paralyzed: 0
Pristionchus pacificus; conc 15
  mean % any phene: 0%
  rep 1 atypical locomotion: 0
  rep 1 coiled: 0
  rep 1 no phene: 20
  rep 1 paralyzed: 0
  rep 2 atypical locomotion: 0
  rep 2 coiled: 0
  rep 2 no phene: 20
  rep 2 paralyzed: 0
  rep 3 atypical locomotion: 0
  rep 3 coiled: 0
  rep 3 no phene: 20
  rep 3 paralyzed: 0
Pristionchus pacificus; conc 60
  mean % any phene: 12.5%
  rep 1 atypical locomotion: 2
  rep 1 coiled: 0
  rep 1 no phene: 18
  rep 1 paralyzed: 0
  rep 2 coiled: 0
  rep 2 no phene: 17 and 19
  rep 2 paralyzed: 0
  rep 3 atypical locomotion: 4 and 3
  rep 3 coiled: 0
  rep 3 no phene: 16 and 17
  rep 3 paralyzed: 0

## Fc1ccc(N2CCN(C3CCCCCC3)CC2)cc1 [Nemacol-51]
C. elegans; 3.75uM
  atypical locomotion (number of animals): 7 and 4 and 2 and 14 and 17
  coiled (number of animals): 0 and 4 and 2
  no phene (number of animals): 13 and 16 and 18 and 2 and 1
  paralyzed (number of animals): 0
C. elegans; 15uM
  atypical locomotion (number of animals): 13 and 14 and 15 and 6 and 7
  coiled (number of animals): 1 and 3 and 5 and 2 and 8
  no phene (number of animals): 6 and 2 and 3 and 0
  paralyzed (number of animals): 0 and 1 and 6 and 8
  any phene: mean % fraction of young adults exhibiting any phenotype (coiled, jerky-Unc or paralyzed): 89.1667%
C. elegans; 60uM
  atypical locomotion (number of animals): 3 and 1 and 4 and 0
  coiled (number of animals): 14 and 17 and 11 and 15
  no phene (number of animals): 0
  paralyzed (number of animals): 3 and 2 and 5
C. elegans
  EC50: 4.2 ± 2.3 µM
[1]; 0.016 µM
  % effect (motility), DIROIM MF: 0%
[1]; 0.08 µM
  % effect (motility), DIROIM MF: 0%
[1]; 0.4 µM
  % effect (motility), DIROIM MF: 0%
[1]; 2 µM
  % effect (motility), DIROIM MF: 0%
[1]; 10 µM
  % effect (motility), DIROIM MF: 0%
[2]; 10 µM
  % effect (motility), DIROIM L4: 0%
[2]; 50 µM
  % effect (motility), DIROIM L4: 10%
Pristionchus pacificus; [6]
  mean % any phene (coiled, jerky-Unc or paralyzed): 2.5%
Pristionchus pacificus; conc 15, observed at one hour
  mean % any phene (coiled, jerky-Unc or paralyzed): 60%
Pristionchus pacificus; conc 60, observed at one hour
  mean % any phene (coiled, jerky-Unc or paralyzed): 85%
Pristionchus pacificus
  EC50: 13.2 ± 3 µM

## FC(F)(F)c1cccc(N2CCN(C3CCCCCC3)CC2)c1 [Nemacol-52]
C. elegans; 3.75uM
  atypical locomotion (number of animals): 14 and 12 and 10 and 8 and 15
  coiled (number of animals): 0
  no phene (number of animals): 4 and 6 and 10 and 12 and 5
  paralyzed (number of animals): 2 and 0
  any phene: mean % fraction of young adults exhibiting any phenotype (coiled, jerky-Unc or paralyzed): 64.1667%
C. elegans; 15uM
  atypical locomotion (number of animals): 12 and 7 and 8 and 10 and 13 and 9
  coiled (number of animals): 0 and 7 and 4 and 5
  no phene (number of animals): 0
  paralyzed (number of animals): 8 and 13 and 5 and 6 and 2 and 7
  any phene: mean % fraction of young adults exhibiting any phenotype (coiled, jerky-Unc or paralyzed): 100%
C. elegans; 60uM
  atypical locomotion (number of animals): 12 and 8 and 7 and 6 and 13
  coiled (number of animals): 0 and 1
  no phene (number of animals): 0
  paralyzed (number of animals): 8 and 12 and 13 and 7
  any phene: mean % fraction of young adults exhibiting any phenotype (coiled, jerky-Unc or paralyzed): 100%
C. elegans
  EC50: 3.6 µM
[1]; 0.016 µM
  % effect (motility), DIROIM MF: 0%
[1]; 0.08 µM
  % effect (motility), DIROIM MF: 0%
[1]; 0.4 µM
  % effect (motility), DIROIM MF: 0%
[1]; 2 µM
  % effect (motility), DIROIM MF: 0%
[1]; 10 µM
  % effect (motility), DIROIM MF: 0%
[2]; 2 µM
  % effect (motility), DIROIM L4: 0%
[2]; 10 µM
  % effect (motility), DIROIM L4: 0%
[2]; 50 µM
  % effect (motility), DIROIM L4: 15%
Pristionchus pacificus; [6]
  mean % any phene (coiled, jerky-Unc or paralyzed): 5%
Pristionchus pacificus; conc 15, observed at one hour
  mean % any phene (coiled, jerky-Unc or paralyzed): 21.6667%
Pristionchus pacificus; conc 60, observed at one hour
  mean % any phene (coiled, jerky-Unc or paralyzed): 97.5%
Pristionchus pacificus
  EC50: 21.7 ± 3.7 µM
